Test systems include A549 NSCLC; ACHN renal; DU-145 prostate; HCT-116 colon; HL-60(TB) leukemia; HOP-92 NSCLC; KM12 colon; MDA-N; OVCAR-5 ovarian; PC-3 prostate; RXF 393 renal; SN12C renal; SR leukemia; T-47D breast; UO-31 renal.
Common to all, as to test: growth of human tumour cells (NCI), 48 h

This is an account of results in PubChem BioAssay (NCI).

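1) Cells in 96-well plates. 2) Compound, 48 h, 5 concentrations. 3) Linear interpolation between surrounding doses. 4) Unreached endpoint = highest concentration. The concentration for full growth arrest is given as TGI.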

For the compound `CCOC(=O)C1=C(C)N(Cc2ccccc2)C2(O)C=CC(=O)C3C(=O)N(c4ccccc4)C(=O)C132` (stereo not given), the TGI in the test with A549 NSCLC is 10.4 µM; in the test with ACHN renal, 3.25 µM; in the test with DU-145 prostate, 7.63 µM; with HCT-116 colon it was 2.49 µM; in the test with HL-60(TB) leukemia, 4.98 µM; in the test with HOP-92 NSCLC it was 7.96 µM. The TGI in the test on KM12 colon was 4.59 µM; with MDA-N it was 12.5 µM; in the test on OVCAR-5 ovarian it was 9.85 µM; with PC-3 prostate it was 6.88 µM; in the test on RXF 393 renal it was 2.94 µM; with SN12C renal, 10.6 µM. For the same compound, the figures for the TGI with SR leukemia, in the test on T-47D breast and with UO-31 renal were 2.88 µM, 9.27 µM and 3.81 µM, respectively.
In the case of `COC(=O)c1ccc(C)cc1C1CN=NC12Cc1c(C)cccc1C2=O` (stereo not given), the TGI is > 100 µM in the test on A549 NSCLC; > 100 µM with ACHN renal; > 100 µM in the test with DU-145 prostate; > 86.9 µM in the test on HCT-116 colon; 71.1 µM in the test on HL-60(TB) leukemia; 97 µM with HOP-92 NSCLC. The TGI in the test on KM12 colon is > 84.8 µM; in the test with MDA-N, > 100 µM; in the test on OVCAR-5 ovarian it was > 100 µM; in the test with PC-3 prostate it was > 100 µM; in the test with RXF 393 renal, > 100 µM; in the test with SN12C renal, > 95.6 µM. The figures for the TGI with SR leukemia, in the test on T-47D breast and in the test with UO-31 renal were > 80.2 µM, 81.7 µM and > 100 µM, respectively.
For `CC1(c2cccc(C(F)(F)F)c2)CC(c2cccc(C(F)(F)F)c2)=C(C#N)C(=C(C#N)C#N)N1` (stereo not given), the TGI was found to be 39.9 µM with A549 NSCLC; 31 µM in the test with ACHN renal; 31 µM in the test with DU-145 prostate; 29.2 µM in the test on HCT-116 colon; 35.1 µM with HL-60(TB) leukemia; 10.6 µM with HOP-92 NSCLC. The TGI in the test with KM12 colon was found to be 32.9 µM; in the test on MDA-N it was 33.6 µM; in the test with OVCAR-5 ovarian, 32.8 µM; in the test with PC-3 prostate it was 34.7 µM; with RXF 393 renal it was 31.4 µM; in the test on SN12C renal, 32.8 µM. In addition, the TGI with SR leukemia stood at 30 µM; in the test with T-47D breast it was 41.7 µM; in the test on UO-31 renal, 33.4 µM.
As to `O=C1C=CC2(C=C1)O[C@H](CCc1ccccc1)[C@@H](CCc1ccccc1)O2`, the TGI in the test with A549 NSCLC is > 100 µM; with ACHN renal, > 100 µM; in the test with DU-145 prostate, > 100 µM; in the test with HCT-116 colon it was > 100 µM; with HL-60(TB) leukemia, > 100 µM; with HOP-92 NSCLC, 94.3 µM. The TGI with KM12 colon, in the test with MDA-N, in the test on OVCAR-5 ovarian, with PC-3 prostate, in the test on RXF 393 renal and in the test with SN12C renal was > 100 µM each time. In addition, the TGI in the test with SR leukemia, in the test on T-47D breast and with UO-31 renal was > 100 µM each time.
Regarding `CC(Oc1ccc(Cl)cc1Cl)C(=O)NN1C(=O)CC(=O)NC1=S` (stereo not given), the TGI in the test on A549 NSCLC was > 100 µM; in the test on ACHN renal it was > 100 µM; with DU-145 prostate, > 100 µM; with HCT-116 colon it was > 100 µM; in the test with HL-60(TB) leukemia, 91.8 µM; with HOP-92 NSCLC, > 100 µM. The TGI in the test with KM12 colon, with MDA-N, with OVCAR-5 ovarian, in the test with PC-3 prostate, in the test with RXF 393 renal and in the test with SN12C renal was > 100 µM in each case. Also, the TGI in the test with SR leukemia, in the test on T-47D breast and with UO-31 renal was > 100 µM each time.
In the case of `COc1ccc(C)cc1NC(=S)N/N=C/c1ccco1`, the TGI was > 100 µM in the test with A549 NSCLC; > 100 µM in the test on ACHN renal; > 100 µM with DU-145 prostate; > 100 µM in the test on HCT-116 colon; 86.2 µM in the test on HL-60(TB) leukemia; > 100 µM in the test on HOP-92 NSCLC. For the same compound, the TGI in the test with KM12 colon is > 100 µM; with MDA-N it was 68.7 µM; in the test on OVCAR-5 ovarian, > 100 µM; in the test with PC-3 prostate, > 100 µM; in the test on RXF 393 renal, > 100 µM; with SN12C renal it was > 100 µM. Also, the TGI in the test on SR leukemia, in the test with T-47D breast and in the test on UO-31 renal was > 100 µM throughout.
For the compound `N#Cc1ccccc1NC(=O)C(O)C(O)C(O)C(O)C=O` (stereo not given), the TGI with A549 NSCLC, in the test on ACHN renal, with DU-145 prostate, in the test with HCT-116 colon, with HL-60(TB) leukemia and in the test with HOP-92 NSCLC was > 100 µM throughout. Further, the TGI with KM12 colon, in the test on MDA-N, in the test on OVCAR-5 ovarian, with PC-3 prostate, in the test on RXF 393 renal and in the test on SN12C renal was > 100 µM throughout. In addition, the TGI with SR leukemia, with T-47D breast and in the test on UO-31 renal was > 100 µM throughout.
As to `NC(N)=N/N=C/c1c(Cl)nc2n1CCS2`, the TGI with A549 NSCLC is > 100 µM; in the test with ACHN renal, > 100 µM; in the test on DU-145 prostate it was > 100 µM; in the test with HCT-116 colon, 73.7 µM; in the test with HL-60(TB) leukemia, > 100 µM; with HOP-92 NSCLC it was > 100 µM. The TGI in the test on KM12 colon, in the test on MDA-N, with OVCAR-5 ovarian, in the test on PC-3 prostate, with RXF 393 renal and in the test with SN12C renal was > 100 µM throughout. In addition, the TGI in the test with SR leukemia, in the test on T-47D breast and in the test with UO-31 renal was > 100 µM each time.
